Results as given in BindingDB's records for doi:10.1021/jo015665d (Merck Research Laboratories, 2001).

Target: Polymerase acidic protein (Influenza A virus (strain A/Puerto Rico/8/1934 H1N1), UniProt P03433)
Assay: Inhibition of cap 1 ALMV primed Influenza transcriptase

Compound | IC50 [µM]
COCOn1c(=O)c(=Cc2cccc(F)c2)[nH]c(=CC(C)C)c1=O | > 200
COCOn1c(=O)c(=Cc2ccccc2)[nH]c(=CC(C)C)c1=O | > 200
COCOn1c(=O)c(=Cc2ccccc2F)[nH]c(=CC(C)C)c1=O | > 200
COCOn1c(=O)c(=CC(C)C)[nH]c(=CC(C)C)c1=O [(3Z)-5-isobutyl-1-(methoxymethoxy)-3-(2-methylpropylidene)pyrazine-2,6(1H,3H)-dione] | > 200
CC(C)C=c1[nH]c(=Cc2ccc(F)cc2)c(=O)[nH]c1=O [3-(4-fluorobenzylidene)-5-isobutylpyrazine-2,6(1H,3H)-dione] | > 200
COCOn1c(=O)c(=Cc2ccccc2)[nH]c(=Cc2ccc(OC)cc2)c1=O | > 200
COCOn1c(=O)c(=Cc2ccc(OC)cc2)[nH]c(=CC(C)C)c1=O | > 200
COCOn1c(=O)c(=Cc2ccc(F)cc2)[nH]c(=CC(C)C)c1=O | > 200
COCOn1c(=O)c(=Cc2ccccc2)[nH]c(=Cc2ccc(F)cc2)c1=O | > 200
